# Measured values reported in US20220031736A1, “USE OF ANIONIC CLAY IN PREPARING LEAD-REMOVING MEDICINE” (priority 2019, published 2022).
# “And” between values parts separate entries of the source, which are not always exact repeats. Equal values may be shown once.
# System: rats with chronic lead poisoning
# Experiment: Chronic rat lead poisoning model, administration for treatment
# Format: in vivo
# Description: After the model was successfully established, the lead was stopped and the rates were fed with distilled water from the 31st day. […] The rats in the positive medicine group were given a dose of 10 mg/kg of sodium dimercaptosuccinate by intragastric administration, and all the intragastric subjects were given in equal volume twice a day for 30 days. On the 60th day, blood samples were collected. Brain, liver and femur samples were collected and stored in liquid nitrogen for later use. After wet digestion, the blood samples and tissues of each group were tested for content of lead by inductively coupled plasma mass spectrometry (ICP-MS), and the lead-removing rates were counted.
# All the data were processed by SPSS 20.0 statistical software. Every group of measurement data was expressed by mean±[…] (mean±SD), and all of which were tested for homogeneity of variance by Levene method first. If the variances were homogeneous, single factor analysis of variance was used among multiple groups, and two-sample T test was used between two groups. If the hypothesis of parameter test was unreasonable, Kruskal-Wallis test was used among multiple groups, while Wilcoxon test was used between two groups. p<0.05 or p<0.01 was statistically significant.
# 40 male SD rats were randomly divided into five groups including a normal group, a model group, a positive medicine group (sodium dimercaptosuccinate group), a high-dose magaldrate group and a low-dose magaldrate group according to their body weights, and each group included 8 rats. Except the rats in the normal group were given ultrapure water, the rats in the model group, the positive medicine group, and the magaldrate groups of each dose drank 0.5% lead acetate ultrapure water solution for 30 days, resulting in chronic lead-exposed models. After the model was successfully established, the lead was stopped and the rates were fed with distilled water from the 31st day. The rats in the normal group were given an equal volume of 0.5% CMC-Na solution by intragastric administration, while the rats in the high-dose magaldrate group and the low-dose magaldrate group were given a high dose of 0.6 g/kg and a low dose of 0.3 g/kg respectively by intragastric administration. The rats in the positive medicine group were given a dose of 10 mg/kg of sodium dimercaptosuccinate by intragastric administration, and all the intragastric subjects were given in equal volume twice a day for 30 days. On the 60th day, blood samples were collected. Brain, liver and femur samples were collected and stored in liquid nitrogen for later use. After wet digestion, the blood samples and tissues of each group were tested for content of lead by inductively coupled plasma mass spectrometry (ICP-MS), and the lead-removing rates were counted. […]
# [1] = 60th day, positive medicine 0.01 g/kg intragastric twice a day for 30 days, mean ± SD
smiles,measurement,setting,value
"O=C([O-])C(S)C(S)C(=O)[O-].[Na+].[Na+] (stereo not shown) [Sodium dimercaptosuccinate, sodium dimercaptosuccinate]",Content of lead in blood,[1],0.058 ± 0.01 µg/g and 0.069 ± 0.01 µg/g and 0.059 ± 0.01 µg/g and 0.073 ± 0.01 µg/g
same,Content of lead in brain,[1],0.129 ± 0.03 µg/g and 0.218 ± 0.04 µg/g and 0.178 ± 0.04 µg/g and 0.165 ± 0.05 µg/g
same,Femur content of lead,[1],32.085 ± 4.73 µg/g and 35.006 ± 3.92 µg/g and 28.075 ± 3.25 µg/g and 33.478 ± 4.86 µg/g
same,"Removing rate, lead in bones","positive medicine group 10 mg/kg, versus model group",0.00%
